{"source": "paper PMC6121902", "about": "“Conjugation with Dihydrolipoic Acid Imparts Caffeic Acid Ester Potent Inhibitory Effect on Dopa Oxidase Activity of Human Tyrosinase” (International Journal of Molecular Sciences, 2018)", "key": {"[1]": {"tested_on": "mushroom tyrosinase", "assay": "Mushroom tyrosinase DO activity inhibition (dopachrome formation at 475 nm, L-DOPA substrate)", "assay_type": "biochemical", "settings": "LCAME 0.050 μM", "protocol": "The inhibition properties of LCAME were preliminarily investigated on mushroom tyrosinase by spectrophotometric monitoring of dopachrome formation, a method which is routinely used for evaluation of the activity of potential tyrosinase inhibitors. L-DOPA was used as the substrate to test DO activity while L-tyrosine was used to test TH activity. LCAME was incubated in 50 mM phosphate buffer in the presence of mushroom tyrosinase (20 U/mL) at room temperature. After 10 min, L-DOPA or L-tyrosine (1 mM final concentration) were added and the absorbance at 475 nm was measured at different times over 10 min. For comparative purposes the effects of CAME were evaluated as well. Stock methanolic solutions of LCAME or CAME, ranging in concentration from 0.02 to 20 mM concentration were prepared dissolving a proper amount of the compound of interest in methanol. 100 μL of these solutions were added to 2 mL of 50 mM phosphate buffer at pH 6.8 (final concentrations range: 0.001–1 mM), in the presence or in the absence of 20 U/mL mushroom tyrosinase. After 10 min incubation at room temperature, 20 μL of a 100 mM solution of L-DOPA or L-tyrosine in 0.6 M HCl, were added (final concentration: 1 mM). Spectrophotometric analysis was performed by measuring the absorbance at 475 nm for 10 min at 2 min intervals. In control experiments, the reaction was run in the absence of LCAME. When required, the experiment was performed as above but adding L-DOP A soon after the addition of LCAME ([…]). In separate experiments, the assay was run as above with LCAME or CAME at 100 μM, in the presence or absence of L-DOPA, and after 10 min the mixture was analyzed by HPLC."}, "[2]": {"tested_on": "mushroom tyrosinase", "assay": "Consumption of inhibitor by mushroom tyrosinase (substrate test, HPLC)", "assay_type": "biochemical", "settings": "100 μM, 10 min", "protocol": "Some tyrosinase inhibitors are also substrates of the enzyme and this is a critical issue because their oxidation can lead to the formation of highly reactive, cytotoxic o-quinones. To rule out this possibility, either LCAME or CAME at 100 μM were exposed to mushroom tyrosinase, in the absence of L-DOPA, and after 10 min, the reaction mixtures were analyzed by HPLC. […] HPLC analyses for determination of the consumption of CAME and LCAME in the presence of mushroom tyrosinase were performed on a Agilent 1100 binary pump instrument equipped with a UV-visible detector using an octadecylsilane-coated column, 250 mm × 4.6 mm, 5 μm particle size (Phenomenex Sphereclone ODS, Bologna, Italy) at 0.7 mL/min, using the following gradient: 0.1% formic acid (eluant a)/ methanol (eluant b): 40% b, 0–10 min; from 40 to 80% b, 47.5–52.5 min; from 80 to 40% b, 52.5–57.5 min. Detection wavelength was set at 280 nm. Stock methanolic solutions of LCAME or CAME, ranging in concentration from 0.02 to 20 mM concentration were prepared dissolving a proper amount of the compound of interest in methanol. 100 μL of these solutions were added to 2 mL of 50 mM phosphate buffer at pH 6.8 (final concentrations range: 0.001–1 mM), in the presence or in the absence of 20 U/mL mushroom tyrosinase. After 10 min incubation at room temperature, 20 μL of a 100 mM solution of L-DOPA or L-tyrosine in 0.6 M HCl, were added (final concentration: 1 mM). Spectrophotometric analysis was performed by measuring the absorbance at 475 nm for 10 min at 2 min intervals. In control experiments, the reaction was run in the absence of LCAME. When required, the experiment was performed as above but adding L-DOP A soon after the addition of LCAME ([…]). In separate experiments, the assay was run as above with LCAME or CAME at 100 μM, in the presence or absence of L-DOPA, and after 10 min the mixture was analyzed by HPLC."}, "[3]": {"tested_on": "T1, human tyrosinase", "T1 construct": "endogenous in cells", "assay": "TH activity of human tyrosinase", "assay_type": "biochemical", "settings": "compared with DO activity"}, "[4]": {"tested_on": "tyrosinase", "assay": "Tyrosinase expression by Western blot (αPEP7), with or without NDP-MSH", "assay_type": "cell-based, human", "protocol": "Control HBL cells or cells grown in the presence of CAME (25 µM) or LCAME (25 or 50 µM) were stimulated for 48 h with a potent analogue of αMSH ([Nle^4,D-Phe^7]-α-MSH (NDP-MSH), 10^−7 M). Use of the 50 μM concentration of CAME was avoided since this concentration was somewhat cytotoxic as shown above. Expression of tyrosinase was then evaluated by Western blot using a specific antibody directed against tyrosinase (αPEP7). […] However, other mechanisms such as interference with activation and/or functional coupling of the melanocortin 1 receptor responsible for αMSH actions cannot be ruled out and a complete study of these possibilities is beyond the scope of this work. Accordingly, interference of LCAME with MITF expression or activity remains speculative at this stage. In any case, this preliminary observation deserves confirmation using cultured normal human melanocytes and further mechanistic analysis, as it may further support the potential use of LCAME as a skin depigmenting agent. Indeed, LCAME may act at two different levels, on one hand by inhibiting preexisting tyrosinase by a competitive mechanism, and on the other hand by interfering with αMSH-dependent induction of tyrosinase expression.\nFigure 5 Effect on tyrosinase expression of CAME (25 µM) and LCAME (25 and 50 µM). HBL melanoma cells were incubated with or without the indicated compounds and stimulated with NDP-MSH (10^−7 M). After 48 h of treatment, tyrosinase levels were compared by Western blotting, performed as described in Materials and Methods. […] For each experimental condition, the fold-increase of tyrosinase abundance upon NDP-MSH treatment relative to the corresponding control was determined by densitometric analysis (ImageJ software) and is shown below the figure.\nAfter protein separation by SDS-PAGE, they were transferred from the gel to the membrane and immunochemical detection with anti-PEP7 was performed as previously described. Briefly, the filters were blocked for 1 h in 2% bovine serum albumin in 1% Tween 20 PBS and incubated overnight at 4 °C with primary antibodies (1:4000 dilution). The filters were washed and further incubated with peroxidase-labeled mouse anti-rabbit IgG (1:5000 dilution). Staining and detection were done with ECL Plus Western Blotting Detection System chemiluminescent substrate (Thermo Fisher Scientific, Waltham, MA, USA). Images were acquired in a Fusion Solo.6S system (Vilber-Lourmat, Marne La Vallée, France). Signal intensities were estimated with ImageJ (National Institutes of Health, Bethesda, […], USA) in independent blots, and normalized with the corresponding loading controls (obtained by staining the membranes with an anti-ERK2 antibody)."}}, "note": "Entries after “also recorded” stand apart in the source; their conditions may differ."}
{"compound": "COC(=O)/C=C/c1ccc(O)c(O)c1SCCC(S)CCCCC(=O)O", "note": "(stereo not shown) [LCAME, 2-S-lipoylcaffeic acid methyl ester]", "values": [{"measurement": "inhibition of DO activity", "setting": "[1]; 10 min pre-incubation", "value": "50 ± 2", "unit": "%"}, {"measurement": "inhibition of DO activity", "setting": "[1]; L-DOPA added immediately after LCAME (no pre-incubation)", "value": "42 ± 1", "unit": "%"}, {"measurement": "consumption of the inhibitor", "setting": "[2]; absence of L-DOPA", "value": "no significant consumption"}, {"measurement": "consumption of the inhibitor", "setting": "[2]; presence of L-DOPA", "value": "The same result"}, {"measurement": "effect on TH activity of human tyrosinase", "setting": "[3]", "value": "weaker; also recorded: much smaller"}, {"measurement": "NDP-MSH-mediated stimulation of tyrosinase expression", "setting": "[4]; 25 or 50 µM, NDP-MSH 10^−7 M, 48 h", "value": "apparently blocked"}, {"measurement": "basal tyrosinase expression", "setting": "[4]; HBL cells, CAME 25 µM or LCAME 25 or 50 µM, Western blot", "value": "No alteration; also recorded: No significant changes"}]}
